Reference: patent publication US20230016424A1, “HYBRID AMIDE DERIVATIVES OF AMPHOTERICIN B” (The Board of Trustees of the University of Illinois, priority 2019, published 2023)
Blank lines part the entries; values can stand above or below the compound they belong to.

What was measured:
Plasma Stability = assay type: in vitro ADME
Procedure: Plasma Stability: Procedure: […] Plasma was warmed to 37° C. prior to the experiment and centrifuged for 5 mins at 4000 rpm. […] Each time point was monitored in triplicate (0, 10, 30, 60 and 120 min). 4 uL/well aliquot of the working solution was mixed to the blank plasma and incubated at 37° C. AT each time point samples were quenched with ACN stop solution containing 200 ng/ml Tolbutamide & 200 ng/ml Labetalol at 1:3 ratio and mix well on shaker for 10 min then centrifuge at 4000 rpm for 15 min. A 100 ul aliquot of supernatant was mixed with 100 μL of ultra-pure and submitted for LC-MS/MS analysis.

[1] = Liver Microsome stability (In Vitro Metabolism); assay type: in vitro ADME; conditions: for Remaining (T = NCF60 min): no cofactor 60 min
Procedure: Working Compound solution: 10 uM in 50 mM potassium phosphate buffer with 9% MeOH and 1% DMSO
Microsome solution: working concentration 0.625 mg/ml
Stopping solution: Cold ACN with 200 ng/ml Tolbutamide and 200 ng/ml Labetalol (4° C.)
Procedure: In the well plates (T5, T10, T20, T30, T60, NCF60 (no cofactor 60)) 10 uL of the compound/control working solution was added (except T0 and matric blank) followed by microsome solution (80 uL) and the mixture was incubated at 37 C for about 10 mins. A solution of potassium phosphate (10 ul of 50 mM) was added to NCF60 well, incubated at 37 C and time counting started. After prewarming 10 ul of NADPH regenerating solution was added to each plate to start the reaction. At different time point 300 uL/well of stopping solution to terminate the reaction. The sampling plates were shaken for 10 mins and the centrifuged for 20 mins at 4000 rpm. The supernatant was half diluted with ultra pure water and the analyzed using LCMS.

[2] = test system: C. albicans SN250, C. albicans, C. krusei, C. glabrata, C. tropicalis, A. fumigatus 91, 1163, 1100; assay: Average MIC over the tested strains; assay type: cell-based; conditions: Table 7, C16 amide AmB variants

% Remaining at 120 min (Plasma Stability; Human Plasma): 107%
Half Life (Plasma Stability; Human Plasma): >4.82 h
% Remaining at 120 min (Plasma Stability; Rat Plasma): 111%
Half Life (Plasma Stability; Rat Plasma): >4.82 h
CL ([1]; Dog liver microsomes): <9.6 µL/min/mg
CLint ([1]; Dog liver microsomes): <14 mL/min/kg
Remaining (T = 60 min) ([1]; Dog liver microsomes): 101%
T1/2 ([1]; Dog liver microsomes): >2.42 h
Remaining (T = NCF60 min) ([1]; Dog liver microsomes): 87.1%
CL ([1]; Human liver microsomes): <9.6 µL/min/mg
CLint ([1]; Human liver microsomes): <8.6 mL/min/kg
Remaining (T = 60 min) ([1]; Human liver microsomes): 113%
T1/2 ([1]; Human liver microsomes): >2.42 h
Remaining (T = NCF60 min) ([1]; Human liver microsomes): 96.8%
CL ([1]; Monkey liver microsomes): <9.6 µL/min/mg
CLint ([1]; Monkey liver microsomes): <14 mL/min/kg
Remaining (T = 60 min) ([1]; Monkey liver microsomes): 107%
T1/2 ([1]; Monkey liver microsomes): >2.42 h
Remaining (T = NCF60 min) ([1]; Monkey liver microsomes): 106%
CL ([1]; Mouse liver microsomes): <9.6 µL/min/mg
CLint ([1]; Mouse liver microsomes): <38 mL/min/kg
Remaining (T = 60 min) ([1]; Mouse liver microsomes): 127%
T1/2 ([1]; Mouse liver microsomes): >2.42 h
Remaining (T = NCF60 min) ([1]; Mouse liver microsomes): 139%
CL ([1]; Rat liver microsomes): <9.6 µL/min/mg
CLint ([1]; Rat liver microsomes): <17 mL/min/kg
Remaining (T = 60 min) ([1]; Rat liver microsomes): 132%
T1/2 ([1]; Rat liver microsomes): >2.42 h
Remaining (T = NCF60 min) ([1]; Rat liver microsomes): 75.4%
SMILES: COC(=O)C(Cc1c[nH]cn1)NC(=O)C1C(O)CC2(O)CC(O)CC(O)C(O)CCC(O)CC(O)CC(=O)OC(C)C(C)C(O)C(C)C=CC=CC=CC=CC=CC=CC=CC(OC3OC(C)C(O)C(N)C3O)CC1O2 (stereo not drawn) [AL]

SMILES: CC1C=CC=CC=CC=CC=CC=CC=CC(OC2OC(C)C(O)C(N)C2O)CC2OC(O)(CC(O)CC(O)C(O)CCC(O)CC(O)CC(=O)OC(C)C(C)C1O)CC(O)C2C(=O)NCC1CCCO1 (stereo not drawn) [EZ]
MIC (Average Minimum Inhibition Concentration) [2]: 0.516 µM

SMILES: O=CO [FA]
MIC (Average Minimum Inhibition Concentration) [2]: 0.516 µM

SMILES: CC1C=CC=CC=CC=CC=CC=CC=CC(OC2OC(C)C(O)C(N)C2O)CC2OC(O)(CC(O)CC(O)C(O)CCC(O)CC(O)CC(=O)OC(C)C(C)C1O)CC(O)C2C(=O)NC1CN(C(N)=O)C1 (stereo not drawn) [FB]
MIC (Average Minimum Inhibition Concentration) [2]: 0.516 µM

SMILES: COC(=O)C1(NC(=O)C2C(O)CC3(O)CC(O)CC(O)C(O)CCC(O)CC(O)CC(=O)OC(C)C(C)C(O)C(C)C=CC=CC=CC=CC=CC=CC=CC(OC4OC(C)C(O)C(N)C4O)CC2O3)CNC1 (stereo not drawn) [FC]
MIC (Average Minimum Inhibition Concentration) [2]: 0.516 µM

SMILES: CC1C=CC=CC=CC=CC=CC=CC=CC(OC2OC(C)C(O)C(N)C2O)CC2OC(O)(CC(O)CC(O)C(O)CCC(O)CC(O)CC(=O)OC(C)C(C)C1O)CC(O)C2C(=O)NCCOCC(N)=O (stereo not drawn) [FD]
MIC (Average Minimum Inhibition Concentration) [2]: 0.516 µM

SMILES: CC1C=CC=CC=CC=CC=CC=CC=CC(OC2OC(C)C(O)C(N)C2O)CC2OC(O)(CC(O)CC(O)C(O)CCC(O)CC(O)CC(=O)OC(C)C(C)C1O)CC(O)C2C(=O)N1CCC(N)C1 (stereo not drawn) [FE]
MIC (Average Minimum Inhibition Concentration) [2]: 0.531 µM

SMILES: CC1C=CC=CC=CC=CC=CC=CC=CC(OC2OC(C)C(O)C(N)C2O)CC2OC(O)(CC(O)CC(O)C(O)CCC(O)CC(O)CC(=O)OC(C)C(C)C1O)CC(O)C2C(=O)NCCCCCO (stereo not drawn) [FF]
MIC (Average Minimum Inhibition Concentration) [2]: 0.531 µM

SMILES: CC1C=CC=CC=CC=CC=CC=CC=CC(OC2OC(C)C(O)C(N)C2O)CC2OC(O)(CC(O)CC(O)C(O)CCC(O)CC(O)CC(=O)OC(C)C(C)C1O)CC(O)C2C(=O)NC1(C(N)=O)CC1 (stereo not drawn) [FG]
MIC (Average Minimum Inhibition Concentration) [2]: 0.531 µM

SMILES: CC1C=CC=CC=CC=CC=CC=CC=CC(OC2OC(C)C(O)C(N)C2O)CC2OC(O)(CC(O)CC(O)C(O)CCC(O)CC(O)CC(=O)OC(C)C(C)C1O)CC(O)C2C(=O)N1CCNC(=O)C1 (stereo not drawn) [FH]
MIC (Average Minimum Inhibition Concentration) [2]: 0.531 µM

SMILES: CC1C=CC=CC=CC=CC=CC=CC=CC(OC2OC(C)C(O)C(N)C2O)CC2OC(O)(CC(O)CC(O)C(O)CCC(O)CC(O)CC(=O)OC(C)C(C)C1O)CC(O)C2C(=O)NC1CC(N)C(O)C(O)C1O (stereo not drawn) [FI]
MIC (Average Minimum Inhibition Concentration) [2]: 0.172 µM

SMILES: CC(O)CNC(=O)C1C(O)CC2(O)CC(O)CC(O)C(O)CCC(O)CC(O)CC(=O)OC(C)C(C)C(O)C(C)C=CC=CC=CC=CC=CC=CC=CC(OC3OC(C)C(O)C(N)C3O)CC1O2 (stereo not drawn) [FJ]
MIC (Average Minimum Inhibition Concentration) [2]: 0.195 µM

SMILES: CC1C=CC=CC=CC=CC=CC=CC=CC(OC2OC(C)C(O)C(N)C2O)CC2OC(O)(CC(O)CC(O)C(O)CCC(O)CC(O)CC(=O)OC(C)C(C)C1O)CC(O)C2C(=O)NC1C(O)OC(CO)C(O)C1O (stereo not drawn) [FL]
MIC (Average Minimum Inhibition Concentration) [2]: 0.227 µM

SMILES: CC1C=CC=CC=CC=CC=CC=CC=CC(OC2OC(C)C(O)C(N)C2O)CC2OC(O)(CC(O)CC(O)C(O)CCC(O)CC(O)CC(=O)OC(C)C(C)C1O)CC(O)C2C(=O)NC(CO)C(N)=O (stereo not drawn) [FN]
MIC (Average Minimum Inhibition Concentration) [2]: 0.238 µM

SMILES: CC1C=CC=CC=CC=CC=CC=CC=CC(OC2OC(C)C(O)C(N)C2O)CC2OC(O)(CC(O)CC(O)C(O)CCC(O)CC(O)CC(=O)OC(C)C(C)C1O)CC(O)C2C(=O)NC1CC(CO)C(O)C1O (stereo not drawn) [FS]
MIC (Average Minimum Inhibition Concentration) [2]: 2.81 µM

SMILES: CC1C=CC=CC=CC=CC=CC=CC=CC(OC2OC(C)C(O)C(N)C2O)CC2OC(O)(CC(O)CC(O)C(O)CCC(O)CC(O)CC(=O)OC(C)C(C)C1O)CC(O)C2C(=O)NC1C(O)C(O)OC(CO)C1O (stereo not drawn) [FT]
MIC (Average Minimum Inhibition Concentration) [2]: 0.289 µM

SMILES: CC1C=CC=CC=CC=CC=CC=CC=CC(OC2OC(C)C(O)C(N)C2O)CC2OC(O)(CC(O)CC(O)C(O)CCC(O)CC(O)CC(=O)OC(C)C(C)C1O)CC(O)C2C(=O)NC1C(O)OCC(O)C1O (stereo not drawn) [FU]
MIC (Average Minimum Inhibition Concentration) [2]: 0.289 µM

SMILES: CC1C=CC=CC=CC=CC=CC=CC=CC(OC2OC(C)C(O)C(N)C2O)CC2OC(O)(CC(O)CC(O)C(O)CCC(O)CC(O)CC(=O)OC(C)C(C)C1O)CC(O)C2C(=O)NCC(O)C(O)C(O)C(O)CO (stereo not drawn) [FW]
MIC (Average Minimum Inhibition Concentration) [2]: 0.313 µM

SMILES: CC1C=CC=CC=CC=CC=CC=CC=CC(OC2OC(C)C(O)C(N)C2O)CC2OC(O)(CC(O)CC(O)C(O)CCC(O)CC(O)CC(=O)OC(C)C(C)C1O)CC(O)C2C(=O)NCCn1cncn1 (stereo not drawn) [FY]
MIC (Average Minimum Inhibition Concentration) [2]: 0.316 µM

SMILES: CC1C=CC=CC=CC=CC=CC=CC=CC(OC2OC(C)C(O)C(N)C2O)CC2OC(O)(CC(O)CC(O)C(O)CCC(O)CC(O)CC(=O)OC(C)C(C)C1O)CC(O)C2C(=O)NC(CC(N)=O)C(N)=O (stereo not drawn) [FZ]
MIC (Average Minimum Inhibition Concentration) [2]: 0.316 µM

SMILES: CC1C=CC=CC=CC=CC=CC=CC=CC(OC2OC(C)C(O)C(N)C2O)CC2OC(O)(CC(O)CC(O)C(O)CCC(O)CC(O)CC(=O)OC(C)C(C)C1O)CC(O)C2C(=O)NCCCO (stereo not drawn) [GA]
MIC (Average Minimum Inhibition Concentration) [2]: 0.320 µM

SMILES: CC1C=CC=CC=CC=CC=CC=CC=CC(OC2OC(C)C(O)C(N)C2O)CC2OC(O)(CC(O)CC(O)C(O)CCC(O)CC(O)CC(=O)OC(C)C(C)C1O)CC(O)C2C(=O)NC1CCNC1=O (stereo not drawn) [GC]
MIC (Average Minimum Inhibition Concentration) [2]: 0.320 µM

SMILES: CC1C=CC=CC=CC=CC=CC=CC=CC(OC2OC(C)C(O)C(N)C2O)CC2OC(O)(CC(O)CC(O)C(O)CCC(O)CC(O)CC(=O)OC(C)C(C)C1O)CC(O)C2C(=O)NC(CO)C(N)=O (stereo not drawn) [GF]
MIC (Average Minimum Inhibition Concentration) [2]: 0.324 µM

SMILES: CC1C=CC=CC=CC=CC=CC=CC=CC(OC2OC(C)C(O)C(N)C2O)CC2OC(O)(CC(O)CC(O)C(O)CCC(O)CC(O)CC(=O)OC(C)C(C)C1O)CC(O)C2C(=O)NC1(C(N)=O)CNC1 (stereo not drawn) [GG]
MIC (Average Minimum Inhibition Concentration) [2]: 0.328 µM

SMILES: CC1C=CC=CC=CC=CC=CC=CC=CC(OC2OC(C)C(O)C(N)C2O)CC2OC(O)(CC(O)CC(O)C(O)CCC(O)CC(O)CC(=O)OC(C)C(C)C1O)CC(O)C2C(=O)NCC(O)CO (stereo not drawn) [GH]
MIC (Average Minimum Inhibition Concentration) [2]: 0.329 µM

SMILES: CNC(=O)C1C(O)CC2(O)CC(O)CC(O)C(O)CCC(O)CC(O)CC(=O)OC(C)C(C)C(O)C(C)C=CC=CC=CC=CC=CC=CC=CC(OC3OC(C)C(O)C(N)C3O)CC1O2 (stereo not drawn) [GI]
MIC (Average Minimum Inhibition Concentration) [2]: 0.336 µM

SMILES: CC(NC(=O)C1C(O)CC2(O)CC(O)CC(O)C(O)CCC(O)CC(O)CC(=O)OC(C)C(C)C(O)C(C)C=CC=CC=CC=CC=CC=CC=CC(OC3OC(C)C(O)C(N)C3O)CC1O2)C(N)=O (stereo not drawn) [GJ]
MIC (Average Minimum Inhibition Concentration) [2]: 0.336 µM

SMILES: CC1C=CC=CC=CC=CC=CC=CC=CC(OC2OC(C)C(O)C(N)C2O)CC2OC(O)(CC(O)CC(O)C(O)CCC(O)CC(O)CC(=O)OC(C)C(C)C1O)CC(O)C2C(=O)NC1CCCC(O)C1 (stereo not drawn) [GM]
MIC (Average Minimum Inhibition Concentration) [2]: 0.344 µM

SMILES: CNC(=O)CNC(=O)C1C(O)CC2(O)CC(O)CC(O)C(O)CCC(O)CC(O)CC(=O)OC(C)C(C)C(O)C(C)C=CC=CC=CC=CC=CC=CC=CC(OC3OC(C)C(O)C(N)C3O)CC1O2 (stereo not drawn) [GN]
MIC (Average Minimum Inhibition Concentration) [2]: 0.344 µM
